Where a name gives a salt, the structure may show the parent alone. Read-outs that look alike come from different tables or passages of the source.

Holding throughout (test): AK assay 384-well format, Prestwick library screening
One assay concerns P. aeruginosa. The class given is cell-based, Pseudomonas aeruginosa. Conditions: 50 μM final drug concentration; for fold induction at 50 µM: Pseudomonas aeruginosa, 3 h.
Assay [1] deals with S. aureus strain USA300-0114. The class given is cell-based, Staphylococcus aureus. Conditions: 50 μM final drug concentration; for fold induction at 50 µM: Staphylococcus aureus, USA300, 3 h.
For another assay, the system named is E. cloacae. The class given is cell-based, Enterobacter cloacae. Conditions: 50 μM final drug concentration; for fold induction at 50 µM: Enterobacter cloacae, 3 h.
A further assay has as its system K. pneumoniae. The class given is cell-based, Klebsiella pneumoniae. The conditions noted are these: 50 μM final drug concentration; for fold induction at 50 µM: Klebsiella pneumoniae, 3 h.
The next assay has as its system E. faecium. The class given is cell-based, Enterococcus faecium. Conditions: 50 μM final drug concentration; for fold induction at 50 µM: Enterococcus faecium, 3 h.
For another assay, the system named is E. coli. The class given is cell-based, Escherichia coli. The conditions noted are these: 50 μM final drug concentration; for fold induction at 50 µM: Escherichia coli, 3 h.
Assay [2] relates to A. baumannii strain 98-37-09. The class given is cell-based, Acinetobacter baumannii. The conditions noted are these: 50 μM final drug concentration; for fold induction at 50 µM: Acinetobacter baumannii, 983709, 3 h.
[3] abbreviates: planktonic P. aeruginosa, positive cutoff 3-fold increase, read-out: AK-based Prestwick library screening result, P. aeruginosa (fold increase in extracellular AK activity).
Setting [4] is: planktonic S. aureus, positive cutoff 3-fold increase, read-out: AK-based Prestwick library screening result, S. aureus (fold increase in extracellular AK activity).
Where [5] appears, read: planktonic E. cloacae, positive cutoff 3-fold increase, read-out: AK-based Prestwick library screening result, E. cloacae (fold increase in extracellular AK activity).
Setting [6] is: planktonic K. pneumoniae, positive cutoff 3-fold increase, read-out: AK-based Prestwick library screening result, K. pneumoniae (fold increase in extracellular AK activity).
Where [7] appears, read: planktonic E. faecium, positive cutoff 3-fold increase, read-out: AK-based Prestwick library screening result, E. faecium (fold increase in extracellular AK activity).
The mark [8] stands for this setting: planktonic E. coli, positive cutoff 3-fold increase, read-out: AK-based Prestwick library screening result, E. coli (fold increase in extracellular AK activity).
[9] abbreviates: planktonic A. baumannii, positive cutoff 3-fold increase, read-out: AK-based Prestwick library screening result, A. baumannii (fold increase in extracellular AK activity).
The mark [10] stands for this setting: planktonic, cutoff for positive-scoring molecules 3-fold increase.

`Cc1cccc(C)c1NC(=O)C(C)N` (centres unmarked) [Tocainide hydrochloride]: the fold induction at 50 µM in the assay with P. aeruginosa (setting [3]) was determined as 1.1; in assay [1] (setting [4]), 1.1; in the assay on E. cloacae (setting [5]), 1.4; with K. pneumoniae (setting [6]) it was 1.1; in the assay with E. faecium (setting [7]), 1; in the assay on E. coli (setting [8]), 1.2. The fold induction at 50 µM in assay [2] (setting [9]) was determined as 1.6.

Consider `CCCN(CCC)S(=O)(=O)c1ccc(C(=O)O)cc1` [Probenecid], for which the fold induction at 50 µM was determined as 1.2 in the assay with P. aeruginosa (planktonic, cutoff for positive 3-fold increase, read-out: AK-based Prestwick Library Screening Results, P. aeruginosa (fold increase in extracellular AK activity)); 1 in assay [1] (planktonic, cutoff for positive 3-fold increase, read-out: AK-based Prestwick Library Screening Results, S. aureus (fold increase in extracellular AK activity)); 1.4 in the assay on E. cloacae (planktonic, cutoff for positive 3-fold increase, read-out: AK-based Prestwick Library Screening Results, E. cloacae (fold increase in extracellular AK activity)); 1.1 with K. pneumoniae (planktonic, cutoff for positive 3-fold increase, read-out: AK-based Prestwick Library Screening Results, K. pneumoniae (fold increase in extracellular AK activity)); 1 with E. faecium (planktonic, cutoff for positive 3-fold increase, read-out: AK-based Prestwick Library Screening Results, E. faecium (fold increase in extracellular AK activity)); 1.4 in the assay on E. coli (planktonic, cutoff for positive 3-fold increase, read-out: AK-based Prestwick Library Screening Results, E. coli (fold increase in extracellular AK activity)). In addition, the fold induction at 50 µM in assay [2] (planktonic, cutoff for positive 3-fold increase, read-out: AK-based Prestwick Library Screening Results, A. baumannii (fold increase in extracellular AK activity)) turned out to be 1.3.

As to `Cc1onc(-c2ccccc2Cl)c1C(=O)N[C@@H]1C(=O)N2[C@@H]1SC(C)(C)[C@@H]2C(=O)O` [Cloxacillin sodium salt], the fold induction at 50 µM in the assay on P. aeruginosa (384-well format, cutoff for positive-scoring molecules 3-fold increase, read-out: AK-based Prestwick Library Screening Results, P. aeruginosa (increase in extracellular AK activity)) is 1; in assay [1] (384-well format, cutoff for positive-scoring molecules 3-fold increase, read-out: AK-based Prestwick Library Screening Results, S. aureus (increase in extracellular AK activity)), 5.3; with E. cloacae (384-well format, cutoff for positive-scoring molecules 3-fold increase, read-out: AK-based Prestwick Library Screening Results, E. cloacae (increase in extracellular AK activity)), 1; in the assay with K. pneumoniae (384-well format, cutoff for positive-scoring molecules 3-fold increase, read-out: AK-based Prestwick Library Screening Results, K. pneumoniae (increase in extracellular AK activity)), 0.7; with E. faecium (384-well format, cutoff for positive-scoring molecules 3-fold increase, read-out: AK-based Prestwick Library Screening Results, E. faecium (increase in extracellular AK activity)), 1; with E. coli (384-well format, cutoff for positive-scoring molecules 3-fold increase, read-out: AK-based Prestwick Library Screening Results, E. coli (increase in extracellular AK activity)), 1. Moreover, in assay [2] (384-well format, cutoff for positive-scoring molecules 3-fold increase, read-out: AK-based Prestwick Library Screening Results, A. baumannii (increase in extracellular AK activity)), the fold induction at 50 µM was 1.3.

As for `C[C@@]1(O)CCOC(=O)C1` [Mevalonic-D, L acid lactone], in the assay on P. aeruginosa (setting [10]), the “AK-based Prestwick Library Screening Results, P. aeruginosa (fold increase in extracellular AK activity)” value amounted to 0.8. For the same molecule, the “AK-based Prestwick Library Screening Results, S. aureus (fold increase in extracellular AK activity)” value in assay [1] (setting [10]) is given as 0.9. Besides, the “AK-based Prestwick Library Screening Results, E. cloacae (fold increase in extracellular AK activity)” value in the assay on E. cloacae (setting [10]) is 0.9. For the same molecule, the “AK-based Prestwick Library Screening Results, K. pneumoniae (fold increase in extracellular AK activity)” value in the assay on K. pneumoniae (setting [10]) came out at 0.8. In addition, the “AK-based Prestwick Library Screening Results, E. faecium (fold increase in extracellular AK activity)” value in the assay with E. faecium (setting [10]) turned out to be 1.0. In addition, the “AK-based Prestwick Library Screening Results, E. coli (fold increase in extracellular AK activity)” value in the assay with E. coli (setting [10]) is 1.0. Besides, the “AK-based Prestwick Library Screening Results, A. baumannii (fold increase in extracellular AK activity)” value in assay [2] (setting [10]) is listed as 0.9.

With `COc1ccc2c(OC)c3ccoc3nc2c1OC` [Skimmianine], the fold induction at 50 µM amounted to 0.6 in the assay on P. aeruginosa (planktonic, […], read-out: AK-based Prestwick Library Screening Results, P. aeruginosa (fold increase in extracellular AK activity)); 0.6 in assay [1] (planktonic, […], read-out: AK-based Prestwick Library Screening Results, S. aureus (fold increase in extracellular AK activity)); 1.1 in the assay with E. cloacae (planktonic, […], read-out: AK-based Prestwick Library Screening Results, E. cloacae (fold increase in extracellular AK activity)); 0.5 in the assay with K. pneumoniae (planktonic, […], read-out: AK-based Prestwick Library Screening Results, K. pneumoniae (fold increase in extracellular AK activity)); 0.6 in the assay on E. faecium (planktonic, […], read-out: AK-based Prestwick Library Screening Results, E. faecium (fold increase in extracellular AK activity)); 0.6 in the assay with E. coli (planktonic, […], read-out: AK-based Prestwick Library Screening Results, E. coli (fold increase in extracellular AK activity)). Further, the fold induction at 50 µM in assay [2] (planktonic, […], read-out: AK-based Prestwick Library Screening Results, A. baumannii (fold increase in extracellular AK activity)) was found to be 0.5.

On to `CC(C(=O)O)c1ccc(-c2ccccc2)c(F)c1` (centres unmarked) [Flurbiprofen], for which the fold induction at 50 µM in the assay with P. aeruginosa (planktonic, cutoff for positive-scoring molecules 3-fold increase, read-out: AK-based Prestwick Library Screening Results, P. aeruginosa (fold increase in extracellular AK activity)) was 0.8; in assay [1] (planktonic, cutoff for positive-scoring molecules 3-fold increase, read-out: AK-based Prestwick Library Screening Results, S. aureus (fold increase in extracellular AK activity)) it was 0.6; in the assay on E. cloacae (planktonic, cutoff for positive-scoring molecules 3-fold increase, read-out: AK-based Prestwick Library Screening Results, E. cloacae (fold increase in extracellular AK activity)), 1.6; with K. pneumoniae (planktonic, cutoff for positive-scoring molecules 3-fold increase, read-out: AK-based Prestwick Library Screening Results, K. pneumoniae (fold increase in extracellular AK activity)) it was 0.7; with E. faecium (planktonic, cutoff for positive-scoring molecules 3-fold increase, read-out: AK-based Prestwick Library Screening Results, E. faecium (fold increase in extracellular AK activity)), 0.9; in the assay with E. coli (planktonic, cutoff for positive-scoring molecules 3-fold increase, read-out: AK-based Prestwick Library Screening Results, E. coli (fold increase in extracellular AK activity)), 0.8. For the same molecule, in assay [2] (planktonic, cutoff for positive-scoring molecules 3-fold increase, read-out: AK-based Prestwick Library Screening Results, A. baumannii (fold increase in extracellular AK activity)), the fold induction at 50 µM stood at 0.9.

On to `Cc1onc(-c2c(F)cccc2Cl)c1C(=O)N[C@@H]1C(=O)N2[C@@H]1SC(C)(C)[C@@H]2C(=O)O` [Flucloxacillin sodium], for which the fold induction at 50 µM is 1.2 in the assay on P. aeruginosa (setting [3]); 6.1 in assay [1] (setting [4]); 1.3 with E. cloacae (setting [5]); 1.1 with K. pneumoniae (setting [6]); 1 in the assay on E. faecium (setting [7]); 1.3 in the assay on E. coli (setting [8]). Further, in assay [2] (setting [9]), the fold induction at 50 µM came out at 1.5.

For the molecule `CN1C(C(=O)Nc2ccccn2)=C(O)c2ccccc2S1(=O)=O` [Piroxicam], the fold induction at 50 µM in the assay on P. aeruginosa (planktonic P. aeruginosa, 384-well, cutoff for positive-scoring molecules 3-fold increase, read-out: AK-based Prestwick Library Screening Results: P. aeruginosa (increase in extracellular AK activity)) is 1.2; in assay [1] (planktonic S. aureus, 384-well, cutoff for positive-scoring molecules 3-fold increase, read-out: AK-based Prestwick Library Screening Results: S. aureus (increase in extracellular AK activity)), 1.4; in the assay on E. cloacae (planktonic E. cloacae, 384-well, cutoff for positive-scoring molecules 3-fold increase, read-out: AK-based Prestwick Library Screening Results: E. cloacae (increase in extracellular AK activity)), 1.4; in the assay on K. pneumoniae (planktonic K. pneumoniae, 384-well, cutoff for positive-scoring molecules 3-fold increase, read-out: AK-based Prestwick Library Screening Results: K. pneumoniae (increase in extracellular AK activity)) it was 1; in the assay on E. faecium (planktonic E. faecium, 384-well, cutoff for positive-scoring molecules 3-fold increase, read-out: AK-based Prestwick Library Screening Results: E. faecium (increase in extracellular AK activity)), 1.1; in the assay with E. coli (planktonic E. coli, 384-well, cutoff for positive-scoring molecules 3-fold increase, read-out: AK-based Prestwick Library Screening Results: E. coli (increase in extracellular AK activity)), 1.2. For the same molecule, the fold induction at 50 µM in assay [2] (planktonic A. baumannii, 384-well, cutoff for positive-scoring molecules 3-fold increase, read-out: AK-based Prestwick Library Screening Results: A. baumannii (increase in extracellular AK activity)) came out at 1.

The record behind these values is patent US10004701B2, “Methods and compositions for treating infection” (UNIVERSITY OF ROCHESTER, priority 2012, dated 2018).
